Tests used:
[1] = molecular target: Serine/threonine-protein kinase SIK1 (Homo sapiens) (UniProt P57059); test: Inhibition of SIK1 (unknown origin) at 10 uM after 120 mins P33 radiolabeled kinase activity assay
[2] = molecular target: Tyrosine-protein kinase JAK2 (Homo sapiens) (UniProt O60674); test: Inhibition of JAK2 (unknown origin) at 10 uM after 120 mins P33 radiolabeled kinase activity assay
[3] = molecular target: T1, Serine/threonine-protein kinase Nek3 (Homo sapiens) (UniProt P51956); test: Inhibition of NEK3 (unknown origin) at 10 uM after 120 mins P33 radiolabeled kinase activity assay
T1 sequence (whole entry): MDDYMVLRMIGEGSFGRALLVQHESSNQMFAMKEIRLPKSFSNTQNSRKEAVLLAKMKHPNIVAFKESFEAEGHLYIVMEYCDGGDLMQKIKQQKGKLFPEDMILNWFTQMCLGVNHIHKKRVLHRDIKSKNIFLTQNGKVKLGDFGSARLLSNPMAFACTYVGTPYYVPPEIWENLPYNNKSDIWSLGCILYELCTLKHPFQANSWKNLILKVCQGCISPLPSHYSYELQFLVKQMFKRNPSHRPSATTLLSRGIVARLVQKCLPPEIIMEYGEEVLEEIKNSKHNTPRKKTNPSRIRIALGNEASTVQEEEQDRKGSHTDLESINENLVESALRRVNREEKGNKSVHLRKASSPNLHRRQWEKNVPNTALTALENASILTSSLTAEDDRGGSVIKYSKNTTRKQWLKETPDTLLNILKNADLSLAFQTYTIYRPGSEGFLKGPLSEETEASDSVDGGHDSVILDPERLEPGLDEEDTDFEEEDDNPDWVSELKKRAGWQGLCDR

[4] = molecular target: Serine/threonine-protein kinase PAK 6 (Homo sapiens) (UniProt Q9NQU5); test: Inhibition of PAK6 (unknown origin) at 10 uM after 120 mins P33 radiolabeled kinase activity assay
[5] = molecular target: T2, Beta-adrenergic receptor kinase 1 (Homo sapiens) (UniProt P25098); test: Inhibition of GRK2 (unknown origin) at 10 uM after 120 mins P33 radiolabeled kinase activity assay
T2 sequence (whole entry): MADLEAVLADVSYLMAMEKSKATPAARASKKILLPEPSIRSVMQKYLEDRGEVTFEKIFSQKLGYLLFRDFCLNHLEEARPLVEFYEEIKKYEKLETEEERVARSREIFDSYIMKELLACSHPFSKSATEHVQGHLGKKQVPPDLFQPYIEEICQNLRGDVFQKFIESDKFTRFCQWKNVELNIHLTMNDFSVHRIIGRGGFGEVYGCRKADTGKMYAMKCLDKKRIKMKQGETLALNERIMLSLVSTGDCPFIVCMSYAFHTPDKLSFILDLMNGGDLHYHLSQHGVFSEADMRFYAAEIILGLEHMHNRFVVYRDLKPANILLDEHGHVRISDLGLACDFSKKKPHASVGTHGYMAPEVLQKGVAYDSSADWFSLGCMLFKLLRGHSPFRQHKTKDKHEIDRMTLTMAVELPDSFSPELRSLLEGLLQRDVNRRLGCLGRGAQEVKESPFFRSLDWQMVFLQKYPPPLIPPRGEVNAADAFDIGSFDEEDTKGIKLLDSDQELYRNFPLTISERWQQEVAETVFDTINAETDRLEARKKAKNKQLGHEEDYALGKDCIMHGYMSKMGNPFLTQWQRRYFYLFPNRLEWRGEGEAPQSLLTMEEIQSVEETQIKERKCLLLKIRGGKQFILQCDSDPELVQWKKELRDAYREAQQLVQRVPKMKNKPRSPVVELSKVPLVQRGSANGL

[6] = molecular target: Tyrosine-protein kinase Yes (Homo sapiens) (UniProt P07947); test: Inhibition of YES (unknown origin) at 10 uM after 120 mins P33 radiolabeled kinase activity assay
[7] = molecular target: CDK1/Cyclin E (Homo sapiens) (UniProt P06493+P24864); test: Inhibition of CDK1/cyclin E (unknown origin) at 10 uM after 120 mins P33 radiolabeled kinase activity assay; format: protein-complex assay
[8] = molecular target: T3, Receptor-interacting serine/threonine-protein kinase 1 (Homo sapiens) (UniProt Q13546); test: Inhibition of RIP (unknown origin) at 10 uM after 120 mins P33 radiolabeled kinase activity assay
T3 sequence (whole entry): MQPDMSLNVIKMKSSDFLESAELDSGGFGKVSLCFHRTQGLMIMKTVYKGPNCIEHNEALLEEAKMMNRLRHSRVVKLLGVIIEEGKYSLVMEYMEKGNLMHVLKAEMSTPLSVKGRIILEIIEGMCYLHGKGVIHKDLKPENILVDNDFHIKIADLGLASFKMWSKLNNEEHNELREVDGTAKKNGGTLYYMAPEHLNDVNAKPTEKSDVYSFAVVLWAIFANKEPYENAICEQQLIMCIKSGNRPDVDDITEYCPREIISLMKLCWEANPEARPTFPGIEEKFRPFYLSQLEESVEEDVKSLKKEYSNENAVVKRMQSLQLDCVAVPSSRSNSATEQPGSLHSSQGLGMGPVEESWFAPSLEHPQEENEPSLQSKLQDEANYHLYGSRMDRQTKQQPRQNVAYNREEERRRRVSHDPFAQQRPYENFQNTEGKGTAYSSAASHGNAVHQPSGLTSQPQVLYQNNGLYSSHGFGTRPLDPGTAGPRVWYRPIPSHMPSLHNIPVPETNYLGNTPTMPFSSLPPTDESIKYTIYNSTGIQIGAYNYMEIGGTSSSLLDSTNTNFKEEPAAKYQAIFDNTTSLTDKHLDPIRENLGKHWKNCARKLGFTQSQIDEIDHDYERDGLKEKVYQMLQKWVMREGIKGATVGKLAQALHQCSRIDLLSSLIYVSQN

Chain of Tyrosine-protein kinase JAK2 (Homo sapiens) (O60674 whole entry): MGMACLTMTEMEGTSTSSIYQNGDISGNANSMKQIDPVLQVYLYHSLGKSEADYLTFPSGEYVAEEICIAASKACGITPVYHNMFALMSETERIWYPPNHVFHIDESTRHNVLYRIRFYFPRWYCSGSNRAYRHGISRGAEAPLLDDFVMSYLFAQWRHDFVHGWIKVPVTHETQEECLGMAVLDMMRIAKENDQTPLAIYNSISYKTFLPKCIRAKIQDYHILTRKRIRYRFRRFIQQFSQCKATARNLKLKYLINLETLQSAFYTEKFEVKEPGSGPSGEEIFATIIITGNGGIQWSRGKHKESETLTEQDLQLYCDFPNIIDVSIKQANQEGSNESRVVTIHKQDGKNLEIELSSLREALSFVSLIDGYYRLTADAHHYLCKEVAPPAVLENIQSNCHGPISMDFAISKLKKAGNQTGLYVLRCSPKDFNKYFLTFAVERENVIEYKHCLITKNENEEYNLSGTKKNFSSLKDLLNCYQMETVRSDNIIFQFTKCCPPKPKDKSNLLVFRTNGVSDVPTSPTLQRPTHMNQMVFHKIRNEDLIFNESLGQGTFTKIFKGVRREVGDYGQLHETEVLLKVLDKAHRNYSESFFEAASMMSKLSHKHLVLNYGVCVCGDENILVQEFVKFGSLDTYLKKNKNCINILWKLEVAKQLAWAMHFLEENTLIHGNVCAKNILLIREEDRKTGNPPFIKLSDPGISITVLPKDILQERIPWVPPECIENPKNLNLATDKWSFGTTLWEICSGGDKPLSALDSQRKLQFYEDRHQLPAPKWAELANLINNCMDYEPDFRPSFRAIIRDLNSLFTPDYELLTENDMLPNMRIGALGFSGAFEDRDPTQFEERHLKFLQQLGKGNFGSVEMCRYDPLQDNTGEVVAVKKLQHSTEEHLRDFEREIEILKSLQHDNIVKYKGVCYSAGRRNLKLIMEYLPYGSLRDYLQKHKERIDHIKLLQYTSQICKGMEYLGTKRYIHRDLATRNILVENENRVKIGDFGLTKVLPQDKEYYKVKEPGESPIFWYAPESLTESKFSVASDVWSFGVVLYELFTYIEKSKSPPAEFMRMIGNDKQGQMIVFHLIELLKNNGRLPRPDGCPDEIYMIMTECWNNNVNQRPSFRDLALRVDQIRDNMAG
Chain of Tyrosine-protein kinase Yes (Homo sapiens) (P07947 2-543 limits assumed): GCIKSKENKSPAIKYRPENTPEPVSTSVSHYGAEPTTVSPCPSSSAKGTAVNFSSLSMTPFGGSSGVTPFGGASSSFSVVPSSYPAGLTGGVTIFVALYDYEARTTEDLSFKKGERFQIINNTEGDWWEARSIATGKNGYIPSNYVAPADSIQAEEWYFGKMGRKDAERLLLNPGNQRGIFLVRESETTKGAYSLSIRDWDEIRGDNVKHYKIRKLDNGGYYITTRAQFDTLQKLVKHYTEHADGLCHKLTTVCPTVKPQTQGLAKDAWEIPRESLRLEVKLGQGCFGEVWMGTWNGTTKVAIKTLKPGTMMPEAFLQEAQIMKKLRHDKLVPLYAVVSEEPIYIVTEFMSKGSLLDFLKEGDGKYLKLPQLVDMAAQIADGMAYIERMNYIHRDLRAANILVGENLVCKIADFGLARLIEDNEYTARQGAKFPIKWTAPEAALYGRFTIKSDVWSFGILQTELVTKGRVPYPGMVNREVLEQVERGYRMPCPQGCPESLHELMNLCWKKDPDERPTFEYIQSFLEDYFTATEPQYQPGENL
Chain of Serine/threonine-protein kinase PAK 6 (Homo sapiens) (Q9NQU5 whole entry, looked up): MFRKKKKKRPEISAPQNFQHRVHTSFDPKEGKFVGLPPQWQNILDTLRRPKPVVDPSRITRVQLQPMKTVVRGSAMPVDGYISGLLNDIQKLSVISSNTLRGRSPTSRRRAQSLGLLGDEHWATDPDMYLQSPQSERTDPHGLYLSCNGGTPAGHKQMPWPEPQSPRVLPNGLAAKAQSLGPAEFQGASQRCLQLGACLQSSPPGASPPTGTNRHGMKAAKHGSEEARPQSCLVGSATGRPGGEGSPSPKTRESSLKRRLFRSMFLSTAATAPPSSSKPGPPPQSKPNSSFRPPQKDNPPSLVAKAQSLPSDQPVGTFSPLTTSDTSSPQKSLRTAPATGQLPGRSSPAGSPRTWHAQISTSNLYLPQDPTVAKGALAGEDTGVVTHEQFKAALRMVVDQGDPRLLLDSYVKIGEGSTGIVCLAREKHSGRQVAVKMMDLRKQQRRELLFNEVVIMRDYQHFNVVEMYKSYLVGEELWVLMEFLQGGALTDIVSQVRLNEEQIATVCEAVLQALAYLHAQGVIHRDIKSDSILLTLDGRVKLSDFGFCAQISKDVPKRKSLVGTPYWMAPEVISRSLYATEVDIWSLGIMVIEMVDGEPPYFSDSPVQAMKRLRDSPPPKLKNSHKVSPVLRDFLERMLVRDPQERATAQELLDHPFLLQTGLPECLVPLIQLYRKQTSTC
Chain of CDK1/Cyclin E (Homo sapiens) (P06493 whole entry, looked up): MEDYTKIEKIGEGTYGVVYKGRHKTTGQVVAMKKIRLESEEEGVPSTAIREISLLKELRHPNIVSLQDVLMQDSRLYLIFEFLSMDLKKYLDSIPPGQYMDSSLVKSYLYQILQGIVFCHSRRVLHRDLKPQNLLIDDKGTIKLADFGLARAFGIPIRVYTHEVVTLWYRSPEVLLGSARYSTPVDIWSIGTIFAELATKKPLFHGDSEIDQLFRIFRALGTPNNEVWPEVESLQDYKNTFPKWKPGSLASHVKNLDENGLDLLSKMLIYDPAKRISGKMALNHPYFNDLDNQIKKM
Chain of CDK1/Cyclin E (Homo sapiens) (P24864 whole entry, looked up): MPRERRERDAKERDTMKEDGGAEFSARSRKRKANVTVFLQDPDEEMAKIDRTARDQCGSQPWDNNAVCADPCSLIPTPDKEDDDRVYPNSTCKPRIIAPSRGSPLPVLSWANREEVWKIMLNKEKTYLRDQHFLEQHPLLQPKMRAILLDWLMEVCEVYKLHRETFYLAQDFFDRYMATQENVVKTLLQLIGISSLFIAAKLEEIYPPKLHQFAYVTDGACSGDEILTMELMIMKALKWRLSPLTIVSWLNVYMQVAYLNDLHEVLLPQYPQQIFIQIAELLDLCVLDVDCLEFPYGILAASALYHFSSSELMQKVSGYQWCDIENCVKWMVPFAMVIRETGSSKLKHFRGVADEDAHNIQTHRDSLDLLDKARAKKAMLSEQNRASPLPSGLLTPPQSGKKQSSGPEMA
Chain of Serine/threonine-protein kinase SIK1 (Homo sapiens) (P57059 whole entry): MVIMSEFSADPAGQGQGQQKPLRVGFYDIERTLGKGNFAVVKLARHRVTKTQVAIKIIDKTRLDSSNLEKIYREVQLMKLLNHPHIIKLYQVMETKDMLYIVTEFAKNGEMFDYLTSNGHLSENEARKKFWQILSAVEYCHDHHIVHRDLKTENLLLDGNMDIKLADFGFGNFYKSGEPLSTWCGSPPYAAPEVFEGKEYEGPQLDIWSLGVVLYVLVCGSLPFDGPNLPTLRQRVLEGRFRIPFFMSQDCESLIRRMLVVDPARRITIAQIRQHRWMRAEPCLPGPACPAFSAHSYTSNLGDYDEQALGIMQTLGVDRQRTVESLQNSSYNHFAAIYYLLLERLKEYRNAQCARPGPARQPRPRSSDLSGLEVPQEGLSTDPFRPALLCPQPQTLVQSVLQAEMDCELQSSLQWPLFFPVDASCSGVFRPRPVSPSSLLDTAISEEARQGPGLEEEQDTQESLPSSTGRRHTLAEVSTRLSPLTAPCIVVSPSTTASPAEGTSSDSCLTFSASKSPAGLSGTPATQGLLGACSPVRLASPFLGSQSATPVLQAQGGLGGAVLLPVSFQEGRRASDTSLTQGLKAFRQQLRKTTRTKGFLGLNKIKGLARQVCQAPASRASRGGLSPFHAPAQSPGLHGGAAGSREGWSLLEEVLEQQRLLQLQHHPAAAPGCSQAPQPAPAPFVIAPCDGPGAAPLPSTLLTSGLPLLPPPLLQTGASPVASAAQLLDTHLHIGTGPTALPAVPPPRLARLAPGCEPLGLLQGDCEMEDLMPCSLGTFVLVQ

| inhibition [1] [%] | inhibition [2] [%] | inhibition [3] [%] | inhibition [4] [%] | inhibition [5] [%] | inhibition [6] [%] | inhibition [7] [%] | inhibition [8] [%] | Structure (SMILES) |
| --- | --- | --- | --- | --- | --- | --- | --- | --- |
| 101 | 12 | 4.28 | 17.4 | 4.42 | 99.9 | 78.3 | 54.4 | CS(=O)(=O)c1cccc(Nc2nccc(-c3sc(N4CCOCC4)nc3-c3cccc(NS(=O)(=O)c4c(F)cccc4F)c3)n2)c1 |
| 34.4 | -2.57 | 16.4 | 3.33 | 2.91 | 70.8 | -2.74 | 33.1 | COCCNC(=O)c1ccc2c(c1)nc(-c1cnc(-c3ccc(Cl)cc3)[nH]1)n2CCOC |
| 22.6 | -0.98 | 10.7 | 8.88 | 2.3 | 82 | 72.2 | 53.2 | CC(C)(C)c1cc(NC(=O)Nc2ccc(Oc3ccncc3)cc2)no1 |
